According to patent US5212188A, “Method for treatment of neurodegenerative diseases” (R. J. Reynolds Tabacco Company, priority 1992, dated 1993):

Legend:
[1] = tested on: synaptosomes from the striatal area of rat brain; assay: [3H]-dopamine release from striatal synaptosomes, continuous perfusion; assay type: cell-based, Sprague-Dawley rats; details: 0.2 ml of a 20 μM solution of ligand, relative to equal concentration of S(-) nicotine, read-out: Dopamine Release (percent release relative to S(-) nicotine)
Experimental: Dopamine release was measured by preparing synaptosomes from the striatal area of rat brain obtained from Sprague-Dawley rats generally according to the procedures set forth by Nagy, et al., J. Neurochem., Vol. 43, pp. 1114-1123 (1984). Striata from 4 rats were homogenized in 2 ml of 0.32M sucrose buffered with 5 mM HEPES (pH 7.5), using a glass-teflon tissue grinder. The homogenate was diluted to 5 ml with additional homogenization solution and centrifuged at 1000×g for 10 min. This procedure was repeated on the new pellet and the resulting supernatant was centrifuged at 12,000×g for 20 min. […] Using this method, 30 to 90 percent of the dopamine was taken up into the synaptosomes, as determined by scintillation counting following filtration through glass fiber filters soaked with 0.5 percent polyethyleneimine. […] After the addition of a 0.2 ml of a 20 μM solution of ligand, the perfusate was collected into scintillation vials at 1 min. intervals and the dopamine released was quantified by scintillation counting. Peaks of radioactivity released above background were summed and the average basal release during that time was subtracted from the total. Release was expressed as a percentage of release obtained with an equal concentration of S(-) nicotine.

[2] = biological target: high affinity nicotinic receptors; assay: Inhibition of L-[3H]nicotine binding to mouse brain membrane preparations; set-up: species or system Mice (DBA strain); details: 10 nM L-[3H]nicotine, 2 hr at 4° C., mouse brain membranes, Ki calculated from IC50 by Cheng method
Experimental: Mice (DBA strain) were maintained on a 12 hour light/dark cycle and were allowed free access to water and food supplied by Wayne Lab Blox, Madison, WI. Animals used in the present studies were 60 to 90 days of age and weighed 20 to 25 g. Brain membrane preparations were obtained from pooled brain tissue of both males and females.
Mice were killed by cervical dislocation. Brains were removed and placed on an ice-cold platform. The cerebellum was removed and the remaining tissue was placed in 10 volumes (weight:volume) of ice-cold buffer (Krebs-RingersHEPES:NaCl, 118 mM; KCl, 4.8 mM; CaCl2, 2.5 mM; MgSO4, 1.2 mM; HEPES, 20 mM; pH to 7.5 with NaOH) and homogenized with a glass-Teflon tissue grinder. The resulting homogenate was centrifuged at 18000×g for 20 min. and the resulting pellet was resuspended in 20 volumes of water. […] Protein was determined by the method of Lowry, et al., J. Biol. Chem., Vol. 193, pp. 265-275 (1951), using bovine serum albumin as the standard.
The binding of L-[^3 H]nicotine was measured using a modification of the method of Romano, et al., Science, Vol. 210, pp. 647-650 (1980) as described previously by Marks, et al., Mol. Pharmacol., Vol. 30, pp. 427-436 (1986). The binding of L-[^3 H]nicotine was measured using a 2 hr. incubation at 4° C. […] Nonspecific binding was determined by inclusion of 10 μM nonradioactive nicotine in the incubations. […]

SMILES: CNCC/C=C/c1cccnc1 [trans-meta-nicotine]
- Emax [1]: 70%
- Ki [2]: 21 ± 5 nM
